# According to patent EP1287854B1 (Cancer Research Technology Limited, priority 2001, dated 2003):
# Where “and” joins values, the source holds several entries; their conditions need not be identical. Equal values may be shown once. Marks after values point to notes of the source that are not given here.
# How the values were obtained:
# [1] = system: Murine mammary carcinoma MDAH-Mca-4 tumours; test: Tumour growth delay and cures, MDAH-Mca-4 tumours grown i.m. in mice; type: in vivo, female C3H/HeN mice; settings: for activity against the MDAH-Mca-4 tumour (in words): single i.p. dose, alone or co-administered with DMXAA 80 µmol/kg
# Method: (§1) Murine mammary carcinoma MDAH-Mca-4 tumours were grown in female C3H/HeN mice from stocks stored in liquid nitrogen at the sixth transplant generation, and were passaged and used for experiments at the eighth transplant generation. Tumours for experiments were grown by inoculating 20 µl of cell suspension ([…] packed cells) intramuscularly in the right gastrocenmius muscle. Animals were randomised to treatment groups, and treated with drugs when the diameter of the tumour-bearing leg reached 10-11 mm (ca. 0.6 g tumour), approximately 18 days after inoculation. […] Both compounds were administered essentially at the same time (within 1 min). Host toxicity was assessed by determination of lethality, and by measurement of body weight 4-5 days after drug treatment. The diameter of the tumour-bearing leg was measured three times weekly until values exceeded 13 mm (ca 1.4 g tumour) at which time the animals were terminated. The growth curve for each individual tumour was plotted as in Figure 1, and the time-to-endpoint (TTE, time from treatment to endpoint) was determined for each mouse. The median and mean TTE was determined for each treatment group. The mean tumour growth delay for each group was calculated as the difference between mean TTE for treated and control groups. The statistical significance of the antitumour effects was tested using ANOVA followed by Dunnett's test to determine p values for the significance of differences between individual groups.
# Animals and Tumours: Murine mammary carcinoma MDAH-Mca-4 tumours were grown from stocks stored in liquid nitrogen at the sixth transplant generation. Tumours (eighth transplant generation when used) were grown from 20 µl of cell suspension (7 mg packed cells), inoculated i.m. in the right gastrocnemius muscle of female C3H/HeN mice (22-25 g at the time of treatment). Mice were randomised to treatment which commenced when the tumour + leg diameter reached 10-11 mm (0.5-0.7 g tumour).
# (§2) Toxicity was assessed as lethality, and body weight loss measured four days after treatment. Any animals becoming moribund were terminated and treated as drug-related deaths in the analysis. The diameter of the tumour-bearing leg was measured 3 times per week after treatment. Antitumour activity was assessed from the tumour growth delay, defined as the difference in time to reach the endpoint of 13 mm (1.5 g tumour) for treated and control groups. Responses were classed as cures if animals were free of evident tumour 120 days after treatment. The statistical significance of tumour growth inhibition was tested by ANOVA using SAS for Windows, with Dunnett's test to evaluate p-values for differences between treatment groups. In experiments with substantial numbers of cures (free of tumour for > 120 days after treatment), statistical significance was tested by Kruskal-Wallis non-parametric analysis of variance using SAS for Windows, and the difference between treatment and control groups by Dunn's test using Sigmastat v2.0.
# [2] = Host toxicity: lethality, body weight change, MTD in tumour-bearing mice; settings: for lowering of the MTD for the chemotherapy drug in the combination: co-administration of DMXAA 80 µmol/kg, one dose level; for MTD: MTD (µmol/kg)
# Method: as §1, §2
# in vivo = settings: female, C3H/HeN, mouse; for AUC: intraperitoneal
# Method: (§3) At various times blood was collected from the retro-orbital sinus of anaesthetised mice into heparinised tubes, and the plasma separated by centrifugation. Tumours were rapidly dissected and frozen at -80°C. Groups of 2-5 mice were used for each time point.
# (§4) LC-MS analysis of paclitaxel: Concentrations of paclitaxel in plasma and tumour were determined by HPLC with detection by positive mode electrospray mass spectrometry. Aliquots of plasma (50 µl) were treated with 1ml of ice-cold acetonitrile:methanol (3:1 v/v) to precipitate proteins. Following addition of 5 µl of an internal standard solution (10 mM cephalomannine), samples were centrifuged, and the resulting supernatants evaporated using a Speed-Vac solvent concentrator (Savant Instruments, NY). The residues were dissolved in 100 µl of 1:1 (v/v) methanol:mobile phase (48% acetonitrile, 52% 1mM sodium acetate buffer (pH 6.2)), and 5-40 µl analysed by LC-MS. Frozen tumours were minced, then homogenised in 2 vol distilled water using a Polytron homogeniser. Ice-cold acetonitrile (1 ml), and 10 µl of internal standard (20 µM cephalomannine) was added to 200 µl of tumour homogenate. The samples were centrifuged and the supernatants dried as above. The residues were dissolved in 200 µl of 1:1 (v/v) methanol:mobile phase, and 5 µl analysed by LC-MS.
# (§5) The LC-MS system was an Agilent HP1100/MSD (Hewlett Packard Waldbronn, Germany) with a 3.2 mm x 150 mm C8 5 µm column (Alltima Associates Inc., Deerfield, IL) and a flow rate of 0.7 ml/min. The mass detector used N2 as the nebulizing and drying gas (flow rate 10 L/min, 350°C; neubulizer pressure 25 psi, capillary voltage 2500 V, fragmentor voltage 120 V). Paclitaxel (MW 854) and cephalomannine internal standard (MW 832) were detected, using single ion monitoring, as sodium adducts at m/z of 876 and 854, respectively. Spiking of control material indicated assay linearity from 0.3-30 µM for both plasma and tumour (r^2 = 0.999). The intra- and inter- assay precision and accuracy gave coefficients of variation ≤ 5%, and recoveries in the range 92-102%. The lower limit of detection of paclitaxel in plasma and tumour (signal:noise ratio of 3) was 0.3 µM.
# (§6) Aliquots of plasma (50 µl) were treated with 1 ml of ice-cold acetonitrile:methanol (3:1 v/v), centrifuged, and the resulting supernatants evaporated as above. The residues were dissolved in 200 µl of 10 mM ammonium acetate buffer (pH 5) and 25 µl was analysed by HPLC using a HP1100 system with diode array detector (278 nm) and fluorescence detector. The column and flow rate were as for paclitaxel above, with a mobile phase of 16% acetonitrile (v/v) in 10 mM ammonium acetate buffer (pH 5). […] The intra- and inter- assay precision and accuracy gave coefficients of variation <7%, and an average recovery of 70%. The lower sensitivity limit of detection by fluorescence (signal:noise ration of 3) was 0.1 µM.
# (§7) Pharmacokinetic Modelling: Modelling of pharmacokinetic data was done using ModelMaker version 4.0 (Cherwell Scientific Limited, The Magdalen Centre, Oxford Science Park, Oxford OX4 4GA, United Kingdom). The following pharmacokinetic parameters were used: Kabs, the first-order rate constant for absorption into the central compartment; Cl, total body clearance; Clinter, intercompartmental clearance; Vd, apparent volume of distribution of the central compartment; Vd2, apparent volume of distribution of the second compartment; Km, Michaelis-Menten constant; Vmax, theoretical maximum rate; AUC, area under the concentration-time curve. For all compounds it was assumed that all of the administered dose would reach the central compartment (i.e. 100% bioavailability). Differences between treatment groups were tested using a F-test comparing the entire curves and if this difference was significant (i.e. p≤0.05) the estimates of each individual model parameter for both groups were tested using a 2-tailed t-test.
# MDAH-Mca-4 tumour = test: Tumour blood flow inhibition, Hoechst 33342 perfusion marker; type: in vivo, mice; settings: DMXAA at 80 µmol/kg (Fig 6A)
# Method: Tumour blood flow inhibition: Tumour blood flow was assessed using the fluorescent perfusion marker Hoechst 33342 (8mg/ml in saline), which was administered i.v. at various times after drug treatment. Mice were scarified 2 min later, and frozen sections (14 µm) prepared from the distal, central and proximal regions of each tumour. Sections were examined with a Nikon epifluorescence microscope at 10x magnification using a UV-1A filter block (excitation 365 nm, barrier filter 400 nm, and dichroic mirror 400 nm). A grid with 81 squares (100 x 100 µm), was used for point scoring of staining. The whole area of each section was scored to avoid bias between peripheral and central regions (which were less well perfused). Normal tissue was excluded but necrotic areas were included. Differences between groups were treated for significance using the Student's t-test (Sigma Stat, version-2.0; Jandel Scientific Limited).
# [3] = Pharmacokinetics in plasma and tumour of tumour-bearing mice
# Method: as §3, §4, §5, §6, §7
# [4] = chemotherapy drug alone, linear regression of growth delay on dose
# [5] = chemotherapy drug co-administered with DMXAA 80 µmol/kg, linear regression
# [6] = paclitaxel 31.6 µmol/kg alone, i.p. once
# [7] = paclitaxel 31.6 µmol/kg alone, i.p. once, 7 mice treated
# [8] = chemotherapy drug alone at its MTD, i.p.
# [9] = chemotherapy drug at MTD of combination, co-administered with DMXAA 80 µmol/kg
# [10] = female, C3H/HeN, mouse, in vivo, ip, chemotherapy drug alone (no DMXAA)
# [11] = female, C3H/HeN, mouse, in vivo, ip, chemotherapy drug co-administered with DMXAA 80 µmol/kg
# [12] = DMXAA 80 µmol/kg alone, i.p. once (Table 1)
smiles,measurement,setting,value
"CC(=O)O[C@H]1C(=O)[C@@]2(C)[C@H]([C@H](OC(=O)c3ccccc3)[C@]3(O)C[C@H](OC(=O)[C@H](O)[C@@H](NC(=O)c4ccccc4)c4ccccc4)C(C)=C1C3(C)C)[C@]1(OC(C)=O)CO[C@@H]1C[C@@H]2O [paclitaxel, 5β, 20-Epoxy-1,2a,4,7β,10β,13a-hexahydroxytax-11-en-9-one 4,10-diacetate 2-benzoate 13-ester with (2R, 3 S)-N-benzoyl-3-phenylisoserine]",antitumour activity,"[1]; DMXAA dose-response experiment (Fig 5), paclitaxel alone at 23.7 µmol/kg",no significant activity
same,Slope of dose/response,[1]; [4],0.08 ± 0.06 days/µmol/kg
same,Slope of dose/response,[1]; [5],1.83 ± 0.4 days/µmol/kg
same,DMF,"[1]; gradient with DMXAA/gradient without DMXAA, estimated using upper error estimate of the slope for the chemotherapy drug only",significantly greater than unity
same,DMF,"[1]; gradient with DMXAA/gradient without DMXAA, estimated using upper error estimate of the slope for the chemotherapy drug only, listed as Paclitaxel",>13^c
same,Growth delay (days) Mean,[1]; [6],0.1 days
same,Number of mice Cures,[1]; [7],0
same,Growth delay (days) Mean,"[1]; paclitaxel 42.1 µmol/kg alone, i.p. once",4 days and 4.3 days
same,Number of mice Cures,"[1]; paclitaxel 42.1 µmol/kg alone, i.p. once, 7 mice treated",0
same,activity against the MDAH-Mca-4 tumour (in words),[1],essentially inactive
same,% body weight change at 4 days,[2]; [8],0.3 ± 1.1%
same,% body weight change at 4 days,[2]; [9],-3.9 ± 1.2%
same,lowering of the MTD for the chemotherapy drug in the combination,[2],1.33 fold
same,Number of mice Deaths,"[2]; female, C3H/HeN, mouse, in vivo, ip, 42.1 µmol/kg",0
same,MTD,[2]; [10],42.1 µmol/kg
same,MTD,[2]; [11],31.6 µmol/kg
same,% Body weight change (d4-5) Mean,"[2]; mouse, in vivo, ip",0.3%
same,% Body weight change (d4-5) Mean,[2]; [6],1.9%
same,Number of mice Deaths,[2]; [7],0
same,AUC,"in vivo; plasma, 23.7 umol/kg",18.8 µM·h
same,AUC,"in vivo; tumour, 23.7 umol/kg",32.8 µM·h
"CC(=O)O[C@@]12CO[C@@H]1C[C@H](O)[C@@]1(C)C(=O)[C@H](O)C3=C(C)[C@@H](OC(=O)[C@H](O)[C@@H](NC(=O)OC(C)(C)C)c4ccccc4)C[C@@](O)([C@@H](OC(=O)c4ccccc4)[C@H]21)C3(C)C [docetaxel, (2R,3S)-N-carboxy-3-phenylisoserine, N tert-butyl ester, 13-ester with 5b-20-epoxy-1,2a,4,7b,10b,13a-hexahydroxytax-11-en-9-one 4-acetate 2-benzoate trihydrate]",Growth delay (days) Median,"[1]; Docetaxel 17.8 µmol/kg alone, interim analysis",-1.7 days
same,Growth delay (days) Median,"[1]; Docetaxel 23.7 µmol/kg alone, interim analysis",0.8 days
same,Slope of dose/response,[1]; [4],-0.02 ± 0.14 days/µmol/kg
same,Slope of dose/response,[1]; [5],1.37 ± 0.22 days/µmol/kg
same,DMF,"[1]; gradient with DMXAA/gradient without DMXAA, estimated using upper error estimate of the slope for the chemotherapy drug only, trihydrate",significantly greater than unity
same,DMF,[1]; im,>9^c
same,activity against the MDAH-Mca-4 tumour (in words),"[1]; listed as Docetaxel, trihydrate",essentially inactive
same,activity against the MDAH-Mca-4 tumour (in words),[1]; trihydrate,essentially devoid of activity
same,% Body weight change (d4-5) Mean,[2]; Docetaxel 17.8 µmol/kg alone,-1.8%
same,Number of mice Deaths,"[2]; Docetaxel 17.8 µmol/kg alone, 2 mice treated, interim analysis",0
same,% Body weight change (d4-5) Mean,[2]; Docetaxel 23.7 µmol/kg alone,-4.1%
same,Number of mice Deaths,"[2]; Docetaxel 23.7 µmol/kg alone, 5 mice treated, interim analysis",0
same,% body weight change at 4 days,[2]; [8],-4.1 ± 1.3%
same,% body weight change at 4 days,[2]; [9],-7.2 ± 1.2%
same,lowering of the MTD for the chemotherapy drug in the combination,[2],1.33 fold
same,MTD,[2]; [10],23.7 µmol/kg
same,MTD,[2]; [11],17.8 µmol/kg
"Cc1ccc2c(=O)c3cccc(CC(=O)O)c3oc2c1C [DMXAA, 5,6-dimethylxanthenone-4-acetic acid]",Growth delay (days) Median,"[1]; DMXAA 80 µmol/kg alone (Table 3, interim analysis)",10.5 days
same,Growth delay (days) Mean,[1]; [12],8.3 days
same,Number of mice Cures,"[1]; DMXAA 80 µmol/kg alone, i.p. once, 7 mice treated (Table 1)",0
same,mean tumour growth delays (range over experiments),[1]; DMXAA alone at 80 µmol/kg,3.5 to 8.3 days
same,"tumour growth delay, overall mean","[1]; DMXAA alone at 80 µmol/kg, all experiments",6.6 ± 0.6 days
same,% Body weight change (d4-5) Mean,[2]; DMXAA 80 µmol/kg alone (Table 3),-4.8%
same,% Body weight change (d4-5) Mean,[2]; [12],-4.1%
same,"inhibition of tumour blood flow (H33342 perfusion), time course",MDAH-Mca-4 tumour,"prompt and irreversible blood flow shutdown, with no recovery by 24 hr"
same,AUC,"in vivo; plasma, 80 umol/kg",3630 µM·h
same,Km,"in vivo; plasma, ip, 80 µmol/kg",220 µM
same,effect of co-administration on DMXAA plasma pharmacokinetic parameters,[3]; DMXAA 80 µmol/kg with paclitaxel at 23.7 µmol/kg,unaffected
same,Vmax (µM hr^-1),"[3]; Plasma, DMXAA 80 µmol/kg i.p., parentheses % CV",63 (6.1) µM hr^-1
